{
  "source": "patent US8871794B2",
  "about": "“Small-molecule agonists for type-2 orexin receptor” (Board of Regents, The University of Texas System, priority 2008, dated 2014)",
  "key": {"[1]": {"test_system": "wild-type mice", "test": "Diet-induced obesity in mice", "format": "in vivo, mouse", "excerpt": "To examine whether enhanced OX2R signaling causes resistance to diet-induced obesity, an OX2R selective agonist, [Ala11, D-Leu15] Orexin-B (Akanmu and Honma, 2005 Brain. Res. 1048. 138-145.; Asahi et al., 2003 Bioorg. Med. Chem. Lett. 13.\n111-113) was continuously infused in the lateral ventricles of wild-type mice for 14 days. […] There was no effect of the OX2R selective agonist for OX2R-deficient mice on a high fat diet (n=4, weight gain 3.33±0.61 g), verifying the selectivity of the agonist in vivo."}, "[2]": {"test_system": "orexin/ataxin-3-transgenic mice", "test": "Cataplexy testing in orexin/ataxin-3-transgenic mice", "format": "in vivo", "conditions": "3 nmol per mouse i.c.v., first 3 h after injection, vs vehicle", "excerpt": "(§1) Aspects of this example, including more detailed descriptions of the production of the CAG/orexin-transgenic mice, the cataplexy testing, cannulation (i.c.v.) and orexin administration and EEG/EMG recordings were published in Mieda et al., PNAS USA Mar. 30, 2004; 101(13):4649-54.\n(§2) We administered orexin-A, a nonselective agonist for orexin receptor type 1 (OX1R) and OX2R.\nWe examined whether i.c.v. orexin-A administration suppresses cataplectic arrests in orexin/ataxin-3-transgenic mice. By using a randomized crossover design, we administered vehicle and orexin-A to all mice during separate experimental sessions. […] Thus, i.c.v. administration of orexin-A is sufficient to acutely suppress behavioral arrests in this model of narcolepsy."}, "[3]": {"test_system": "orexin/ataxin-3 mice and wild-type controls", "test": "EEG/EMG sleep/wake recording in orexin/ataxin-3 and wild-type mice", "format": "in vivo, mouse", "excerpt": "as §1, §2\nTo quantify the effects of orexin-A administration on sleep/wake status, we recorded EEG/EMG in orexin/ataxin-3 mice, as well as wild-type controls. […] Nevertheless, some pharmacological effects of exogenous orexins have been reported to vary with time of day (Zeitgeber-dependent effects). We therefore examined the effects of orexin-A administrations in mice both at the onset of the dark (active) phase as well as during the light (resting) phase, again by using a randomized crossover design."}, "[4]": {"test_system": "wild type C57BL/6J mice", "test": "Emergence from isoflurane anesthesia (return of righting reflex)", "format": "in vivo, mouse", "description": "Loss and Return of Righting Reflex. Induction and emergence from isoflurane or sevoflurane were defined behaviorally as the respective loss and return of the righting reflex and were evaluated as follows. Wild-type C57BL/6J male mice aged 8-14 weeks (Jackson Laboratories). were placed in cylindrical gas-tight, controlled-environment chambers arrayed in parallel (35). After 90 min of habituation with 100% oxygen each day on two successive days, anesthesia was induced with a Drager model 19.1 isoflurane or sevoflurane vaporizer by using 8-12 stepwise incremental increases in the concentration of anesthetic gas dissolved in 100% oxygen. Anesthetic gas concentrations were determined in triplicate during the last 2 min at each step (35). Initial volatile anesthetic concentrations were 0.44% isoflurane or 0.96% sevoflurane. After 15 min at each concentration to allow for equilibration of the mouse with the anesthetic vapors, the concentration of volatile anesthetic was increased by 6±3% of the preceding value. […]\nPharmacologic Inhibition of Orexin Signaling and Righting Reflex Studies. To determine the effect of the orexin-1R antagonist, SB-334867-A (Tocris Bioscience), on induction of anesthesia, 24 C57BL/6J mice were evaluated for both the concentration at which the righting reflex was lost as well as a separate experiment to measure the latency to loss of righting. […]"}, "[5]": {"conditions": "0.5 nmol/d infused in lateral ventricles, 14 days, wild-type mice"}, "[6]": {"conditions": "3 nmol i.c.v., regardless of genotype and time of administration"}},
  "note": "Where no end group is shown, it is not given here.",
  "data": [
    {"molecule": "[Ala11, D-Leu15] Orexin-B", "values": [
      {"measurement": "weight gain on a high fat diet", "setting": "[1]; [5]", "value": "suppressed weight gain"},
      {"measurement": "weight homeostasis on a low fat diet", "setting": "[1]; [5]", "value": "without altering weight homeostasis"},
      {"measurement": "fat mass gain vs vehicle on a high fat diet", "setting": "[1]; 14 days, wild-type mice, high fat diet", "value": "gained significantly less fat mass"},
      {"measurement": "fat mass gain on a low fat diet", "setting": "[1]; 14 days, wild-type mice, low fat diet", "value": "no effect was observed"},
      {"measurement": "effect for OX2R-deficient mice on a high fat diet", "setting": "[1]; OX2R-deficient mice, high fat diet", "value": "no effect"},
      {"measurement": "weight gain", "setting": "[1]; OX2R-deficient mice, high fat diet, n=4", "value": "3.33 ± 0.61", "unit": "g"},
      {"measurement": "change in LEPR, POMC, SOCS3, STAT3 transcripts", "setting": "[1]; after 14 days", "value": "no significant change"},
      {"measurement": "hypothalamic mRNA expression of orexigenic factors NPY and AGRP", "setting": "[1]; after 14 days, high fat diet compared to low fat diet", "value": "reduced hypothalamic mRNA expression"},
      {"measurement": "food intake", "setting": "[1]; high fat vs low fat diet", "value": "reduced food intake only on a high fat but not on low fat diet"}
    ]},
    {"molecule": "orexin-A: a nonselective agonist for orexin receptor type 1 (OX1R) and OX2R (QPLPDCCRQKTCSCRLYELLHGAGNHAAGILTL; ends and bridges not checked; cysteine pairing not given here; UniProt O43612 34-66, looked up)", "values": [
      {"measurement": "frequency of cataplectic arrests", "setting": "[2]", "value": "significantly reduced"},
      {"measurement": "overall time spent in cataplexy", "setting": "[2]", "value": "significantly reduced"},
      {"measurement": "non-REM sleep in narcoleptic animals compared with wild-type", "setting": "[3]; 3 nmol i.c.v., 3-h period", "value": "significantly greater suppressions of non-REM sleep"},
      {"measurement": "wakefulness in orexin/ataxin-3-transgenic mice compared with wild-type mice", "setting": "[3]; 3 nmol i.c.v., 3-h period", "value": "significantly greater amounts of wakefulness"},
      {"measurement": "elevation of REM sleep in narcoleptic mice", "setting": "[3]; 3 nmol i.c.v., dark phase", "value": "effectively suppressed this elevation of REM sleep"},
      {"measurement": "non-REM and REM sleep", "setting": "[3]; [6]", "value": "suppressed both non-REM and REM sleep"},
      {"measurement": "wakefulness", "setting": "[3]; [6]", "value": "strikingly increased wakefulness"},
      {"measurement": "REM sleep suppression, narcoleptic mice vs wild-type controls", "setting": "[3]; 3 nmol i.c.v., regardless of the time of administration", "value": "more effective at suppressing REM sleep in narcoleptic mice than in wild-type controls"},
      {"measurement": "effects in knockout mice lacking both OX1R and OX2R genes", "setting": "[3]; 3 nmol per mouse i.c.v.", "value": "no detectable effects"},
      {"measurement": "cumulative wakefulness and cumulative sleep in narcoleptic animals", "setting": "[3]; 24 h after a nocturnal administration", "value": "statistically significant increase of cumulative wakefulness and a decrease of cumulative sleep"},
      {"measurement": "immediate rebounds of sleep", "setting": "[3]; after dark-phase or light-phase administration", "value": "no immediate rebounds of sleep were observed"}
    ]},
    {"molecule": "Cc1nc2ccc(NC(=O)Nc3ccnc4cccnc34)cc2o1.Cl", "note": "[SB-334867-A]", "values": [
      {"measurement": "emergence from isoflurane anesthesia, dose dependence", "setting": "[4]; 5 mg/kg or 20 mg/kg i.p., 1.25% isoflurane", "value": "dose-dependent delay in emergence"},
      {"measurement": "emergence from isoflurane anesthesia", "setting": "[4]; 20 mg/kg i.p. (F2,45=8.80, P<0.001)", "value": "significantly delayed emergence"}
    ]}
  ]
}
